Results reported in EP1060182B1, “NOVEL PRODRUGS FOR PHOSPHORUS-CONTAINING COMPOUNDS” (Metabasis Therapeutics, Inc., priority 1998, dated 1999).
Where “and” joins values, the source holds several entries; their conditions need not be identical. Identical values can stand only once. Entries after “also recorded” stand apart in the source; their conditions may differ. Like-named read-outs stand apart in the source and are kept apart here. One block for each molecule: values may come before it.

Key:
[1] = Preliminary 22-day toxicological evaluation, intraperitoneal (Example R); format: in vivo, mouse; conditions: i.p. 10 and 100 mg/kg b.i.d. for 22 days, doses up to 200 mg/kg/d
Source text: Death and other obvious signs of toxicity such as weight loss, tremors, ruffling fur, hunching, prostration, diarrhea, lethargy, and hyperactivity were monitored.

[2] = Liver ara-ATP and plasma/urine ara-hypoxanthine after intravenous dosing (Example O); format: in vivo, rat
Protocol: The temporal profile of ara-hypoxanthine and ara-ATP generation following intravenous administration of 30.1 and free ara-AMP was compared in the rat.
Method: 30.1 and ara-AMP (Sigma) were administered to normal, fasted rats intravenously (in saline) via tail vein catheters. At appropriate time points following drug a administration, animals were lightly anesthetized with halothane. The peritoneal cavity was then opened and a blood sample was obtained from the abdominal vena cava and the liver freeze-clamped and excised.
The blood samples were heparinized and plasma was prepared. Plasma samples (100 µL) were mixed with 4 N perchloric acid (40 µL), vortexed, and then clarified by centrifugation. The supernatants were analyzed for ara-hypoxanthine by HPLC with use of a Beckman Ultrasphere ODS column (4.6 x 150 mm). The column was eluted with 100 mM acetic acid at a flow rate of 1.0 mL/min. The eluent was monitored by UV absorbance at 254 nm.
Livers were immediately homogenized in 3 volumes of 10% perchloric acid (w/w), and the extracts clarified by centrifugation at 2500 x g (5 minutes). The resulting supernatants were removed and neutralized with 0.3 volumes of 3M KOH/ 3M KHCO3. The neutralized liver extracts were then spun in an Eppendorf microfuge at 10,000 rpm (20 minutes, 4°C). The supernatants were analyzed for ara-ATP content by reverse phase HPLC (HP1050) using a Whatman Partisphere SA column (4.6 x 125 mm). A gradient from 0.3M ammonium phosphate buffer pH 3.5 to 0.8M ammonium phosphate pH 3.5 was run (1 ml/minute flow rate).
Renal excretion of araH following i.v. administration of 30.1 or ara-AMP was determined as described in Example Q.

recombinant CYP3A4 = assay: Activation by recombinant CYP3A4 (Example G); format: in vitro ADME; conditions: 30.1 at 250 µM, 37°C, NADPH dependent, linear for 30 minutes
Protocol: Activation of 30.1 and 28.4 was evaluated in reactions containing microsomes from baculovirus-infected insect cells co-expressing recombinant CYP3A4 and cytochrome p450 reductase (Panvera Corp., Madison, WI).
Methods: Reaction mixture composition was similar to that described in Example E. Reactions were terminated by addition of methanol to a final concentration of 60%, and products typically analyzed by HPLC with use of a YMC reverse phase C8 column (250 x 4.6 mm). […] The effluent was monitored at 254 nm.

[3] = Pharmacokinetics of 30.1 after intravenous dosing (Example N); format: in vivo, rat; conditions: for half-life: 20 mg/kg
Protocol: The pharmacokinetics of 30.1 were evaluated in the rat.
Methods: 30.1 was administered at 20 mg/kg to fasted rats via the tail vein under light halothane anesthesia. At apropriate time points following drug administration, rats were re-anesthetized with halothane. The peritoneal cavity was then opened and a blood sample was obtained from the abdominal vena cava and the liver freeze-clamped and excised. Blood samples were briefly centrifuged and the plasma fraction was then extracted with 1.5 volumes of methanol, processed, and analyzed by HPLC as described in Example A. Liver samples were excised, frozed in liquid nitrogen, and then homogenized in 100% methanol. Liver extracts were then centrifuged at 14,000 rpm and the methanolic supernatants subsequently filtered and evaporated to dryness. Samples were resuspended in isotonic saline and analyzed by HPLC as described in Example A. Pharmacokinetic parameters were determined with the aid of WinNonLin version 1:1 (Scientific Consulting, Inc.) software. Renal excretions studies were performed as described in Example Q.

[4] = Stability in plasma (Example C); format: in vitro ADME, rat; conditions: 37°C, 5-8 hours, reverse phase HPLC
Method: Methods: Compounds were incubated in plasma at 37°C, and aliqouts removed at appropriate time points over the course of 5-8 hours. The aliquots were extracted with 1.5 volumes of methanol and clarified by centrifugation. Supernatants were then evaporated to dryness and the residues reconstituted with 100 µL of isotonic saline and then analyzed by reverse phase HPLC.

isolated rat hepatocytes [5] = assay: Active drug metabolites formed after prodrug activation in isolated rat hepatocytes (Example K); conditions: Dose 100 µM, time point 2h
Method: Methods: Hepatocytes were prepared and incubated as described in Example I. 28.4 and 30.1 and their respective parent compounds, PMEA and ara-AMP, were dissolved in DMSO or methanol to yield 10 mM stock solutions, and then diluted into the cell suspension to yield a final concentration of 100 µM. At appropriate time points over the course of 2-4 hours, aliquots of the cell suspension were removed and spun through a silicon/mineral oil layer into 10% perchloric acid. The cell extracts in the acid layers were neutralized by the addition of 0.3 volumes of 3M KOH/3M KHCO3, and the extract was then centrifuged, filtered (0.2 micron filter) and loaded onto an anion exchange HPLC column equilibrated with 70% A (10 mM ammonium phosphate pH 3.5, 6% ETOH) and 30% B (1 M ammonium phosphate pH 3.5, 6% ETOH). Ara-ATP and PMEApp were eluted with a gradient to 80% B. Detection was at 254 nm.

[6] = Chemical stability in isotonic saline and phosphate buffer (Example A); format: physicochemical
[7] = Activation in tissue homogenates, tissue distribution (Example T); format: in vitro ADME, rat; conditions: liver cytosol, which does not contain microsomes
Protocol: 30.1 is tested for activation in homogenates from various tissues to assess the specificity of liver activation.
Methods: Rats are anaesthetized under halothane and tissues including liver, kidney, brain , heart, stomach, spleen, muscle, lung, and testis are excised and frozen in liquid nitrogen. Tissues are then homogenized in 1 to 3 volumes of 50 mM Tris/HCl, 154 mM KCl, 1 mM EGTA pH 7.4. The homogenate is centrifuged at 10,000 rpm and 4°C for 30 minutes and the supernatant recovered. Liver cytosol is prepared by centrifuging the liver crude extract for 1 hour at 40,000 rpm and 4°C. Reaction mixtures consist of 50 mM KH2PO4 pH 7.4, 13 mM glucose-6-phosphate, 2 mM NADP^+, 10 units of glucose-6-phosphate dehydrogenase, 100 µM 30.1 and tissue homogenate at a protein concentration of 8.5 mg/ml. Reactions are incubated at 37°C. Aliquots are taken after 0 and 1 hour of incubation, and extracted with 60 % methanol. The methanolic extracts are centrifuged at 14,000 rpm, and filtered prior to analysis by HPLC. The samples are loaded onto a YMC C8 column equilibrated with 0.1% TFA and eluted with a methanol gradient to 80%. The activation of 30.1 to ara-AMP is monitored at […]

human liver microsomes = assay: Identification of the p450 isozyme involved in activation, with specific p450 inhibitors (Example F); format: in vitro ADME; conditions: 250 µM prodrug, ketoconazole, furafylline, sulfaphenazole as inhibitors
Protocol: Reactions were stopped by addition of methanol to a concentration of 60%, filtered (0.2 µM filter), and lyophilized. Samples were resuspended in HPLC buffer (10 mM phosphate pH 5.5, 2.5 mM octyl-triethyl-ammonium), loaded onto a YMC C8 HPLC column (250 x 4.6 mm), and eluted with a methanol gradient to 80%.

[8] = test system: microsomal fraction of human liver; assay: Activation by human liver microsomes (Example E); format: in vitro ADME
Protocol: 7.1, 1.3, and 30.1 were tested for conversion to their respective parent compounds by the microsomal fraction of human liver.

[9] = Delivery of parent compound to liver after intraperitoneal prodrug (Example U); format: in vivo, rat; conditions: 1.3 at 50 mg/kg i.p.; the last time point measured
Protocol: Methods: 1.3 was dissolved in DMSO and administered intraperitoneally to fasted rats at a dose of 50 mg/kg. At various time points following drug administration, animals were anesthetized with halothane. The peritoneal cavity was then opened and a blood sample was obtained from the abdominal vena cava and the liver freeze-clamped and excised. Blood and liver samples were processed as described in Example P and analyzed for 6-Amino-9-neopentyl-8-(2-phosphonofuranyl)purine content as described in Example I.

isolated rat hepatocytes [10] = assay: Activation to parent compound in isolated rat hepatocytes (Example I); format: cell-based; conditions: 100 µM prodrug
Source text: An ODS column was used for analysis. […] Detection was at 310 nm.

[11] = test system: glucose production in isolated rat hepatocytes; assay: Inhibition of glucose production in rat hepatocytes (Example J); format: cell-based; conditions: Rattus norvegicus, Hepatocyte; 1 hour, lactate 10 mM / pyruvate 1 mM
Protocol: Select prodrugs of FBPase inhibitors were tested for inhibition of glucose production in isolated rat hepatocytes.
After a 10 minute equilibration period, lactate and pyruvate were added to 10 mM and 1 mM concentrations, respectively. Addition of gluconeogenic substrates was immediately followed by that of appropriate concentrations of test compound. After 1 hour, an aliquot (0.25 ml) was removed, transferred to an Eppendorf tube and centrifuged. The supernatant (50 µl) was then assayed for glucose content using a Glucose Oxidase kit (Sigma Chemical Co.) as per the manufacturer's instructions.

[12] = Oral bioavailability by urinary excretion method (Example M); format: in vivo; conditions: rat, urine, parent compound, read-out: % OBAV Parent
Method: The oral bioavailability of prodrugs of a variety ofphosphonic acid FBPase inhibitors was estimated by a urinary excretion method in rat.
The quantity of parent compound excreted into urine was determined by HPLC analysis. An ODS column eluted with a gradient from potassium phosphate buffer, pH 5.5 to acetonitrile was employed for these measurements. Detection was at 310-325 nm.

Compound: Nc1ncnc2c1ncn2[C@@H]1O[C@H](COP2(=O)OCCC(c3ccncc3)O2)[C@@H](O)[C@@H]1O (stereo partly drawn) [Compound 30.1, Adenine-9-beta-D-arabinofuranoside-5'-[1-(4-pyridyl)-1,3-propyl]monophosphate]
mortality and obvious signs of toxicity [1]: safely administered
amount of araATP per gram of liver over time (Figure 1A) ([2]; 30.1 i.v. 10 and 3 mg/kg vs araAMP 10 mg/kg): Significantly higher liver levels
ara-hypoxanthine in urine ([2]; i.v. 30.1): Nor was ara-hypoxanthine detected in urine
ara-hypoxanthine (araH) in plasma ([2]; i.v., 30.1 at 10 and 3 mg/kg, ara-AMP at equivalent doses): virtually no araH; also recorded: not detected
liver levels of araATP relative to araA or araAMP ([2]; i.v., summary statements of Example O): 2-5 fold and 2- to 5 fold
rate of formation of ara-AMP (recombinant CYP3A4): 3.3 ± 0.5 nmoles/ min/ nmole CYP3A4
concentration of prodrug observed in liver ([3]; 20 mg/kg i.v., at 20 minutes): ~ 20 nmoles/g
half-life ([3]; rat, liver, iv, 20 mg/kg i.v., read-out: liver half life (converted)): 54 min
half-life ([3]; rat, plasma, iv, 20 mg/kg i.v., read-out: plasma half life (converted)): 11.4 min
half-life ([3]; rat, plasma, iv, 30.1 in rat, restated in Example S, read-out: plasma half-life): 12 min
clearance ([3]; rat, plasma, iv, 20 mg/kg i.v.): 3.34 L/h/kg
MRT ([3]; rat, plasma, iv, 20 mg/kg i.v., read-out: mean residence time): 12.6 min
Vd ([3]; rat, plasma, iv, 20 mg/kg i.v., read-out: volume of distribution): 0.7 L/kg
dose excreted at 24 h ([3]; rat, urine, iv, 24 hr urine, read-out: urinary (renal) excretion (24hr)): ~58%
metabolism / degradation in fresh rat plasma [4]: not degraded; also recorded: no evidence of metabolism
Product concentration nmoles/g cells (ara-ATP) (isolated rat hepatocytes [5]): 108±4 nmoles/g cells
stability / decomposition of 30.1 ([6]; 10 µg/mL in isotonic saline and 100 mM potassium phosphate buffers pH 3, 7 and 9, room temperature, sampled 1, 2, 5, 7 days, HPLC): stable for at least seven days; also recorded: No decomposition
activation of 30.1 to ara-AMP [7]: does not result in activation
primary p450 isoform responsible for activation in human liver (human liver microsomes): CYP3A4
reaction rate for the formation of ara-AMP ([8]; 250 µM 30.1, 37°C, human liver microsomes): 0.12 nmoles/min/mg of microsomal protein

persistence of 6-Amino-9-neopentyl-8-(2-phosphonofuranyl)purine in plasma and liver [9]: 4 h
intrahepatocyte levels of parent compound 6-Amino-9-neopenhyl-8-(2-phosphonofuranyl)purine (isolated rat hepatocytes [10]): similarly high levels
metabolism / degradation in fresh rat plasma [4]: no evidence of metabolism
stability of 1.3 ([6]; 100 µM in phosphate buffer pH 7.4, 1 hour at room temperature): fully stable
rate of formation of parent compound ([8]; 250 µM prodrug, 37°C, NADPH-generating system): 0.55 nmoles/mg microsomal protein/minute
Compound: CC(C)(C)Cn1c(-c2ccc(P3(=O)OC4CC(O)CC(C4)O3)o2)nc2c(N)ncnc21 (single isomer, unassigned) [Compound 1.3, 6-Amino-8-(5'-hydroxyl-1',3' cyclohexyl)phosphonofuranyl-9-neopentyl purine]
IC50 [11]: 13 µM

bioavailability at 24 h [12]: 0.5%
Compound: CC(C)Cn1c(-c2ccc(P(=O)(O)O)o2)nc2ccc(Cl)cc21 [6-Chloro-1-isobutyl-2-(2-phosphono-5-furanyl) benzimidazole]
